Test results from patent US20230235374A1, “High Throughput Assays for Detecting Translation Readthrough Inducers” (The Trustees of the University of Pennsylvania, priority 2021, published 2023).

Legend:
[1] = test system: premature stop codon in Stop-POST5 complex; test: PURE-LITE readthrough assay; format: biochemical, shrimp (Artemia salina); conditions: FIG. 2A, read-out: apparent EC50, readthrough efficacy
Procedure: FIG. 2A, FIG. 2B, FIG. 2C, FIG. 2D, FIG. 2E, and FIG. 2F are graphs showing AzAt Photoaffinity Labeling and binding. FIG. 2A is a graph showing the readthrough efficacy of AzAt measured by PURE-Lite readthrough assay. AzAt is shown to display similar sigmoidal response as ataluren and ataluren-like compounds (Ng et al., 2018), with the apparent EC50 of 50±10 μM. FIG. 2B illustrates AzAt photoincorporation into Stop-POST5 and the RNA fraction of Stop-POST5. FIG. 2C illustrates AzAt photoincorporation into 80S-IRES and the total RNA isolated from 80S.IRES. All of the labeling stoichiometries in FIG. […] are normalized to the saturation labeling of Stop-POST5, which was equal to 1.2/Stop-POST5. FIG. 2D illustrates AzAt photoincorporation into eRF1 both alone and complexed with eRF3.GDPNP. The values are normalized to the saturation labeling of isolated eRF1. FIG. 2E illustrates inhibition of AzAt photoincorporation by the addition of either ataluren or GJ072. FIG. 2F is a graph showing Photoaffinity labeling of eRF3 alone or within release factor ternary complex. […] FIG. 2G and FIG. 2H are graphs showing the RNA-seq reads coverage as the effective reads per nucleotide. PRE: treated with 300 μM prephotolysed AzAt; PAL: treated with 300 μM AzAt. 26S-rRNA nucleotides 1-45 were unable to be mapped due to the lack of sequence information. […]

[2] = test system: RNA of Stop-POST5 and 80S.IRES complexes; test: LASER-seq mutational profiling of AzAt photoincorporation sites; format: binding, shrimp (Artemia salina); conditions: 300 μM AzAt
Procedure: RNA-Seq procedures employed closely follow those published (Zinshteyn et al., Nucleic Acids Res, 47, 43-55 (2019); McClary et al., Cell Chem Biol, 24, 605-613 e605 (2017)) except as noted.
Library preparation. RNA-seq libraries were prepared for PAL, PRE, UV, and NUL samples, as defined in Results, of Stop-POST5 and 80S.IRES complexes, using published procedures (Zinshteyn et al., Nucleic Acids Res, 47, 43-55 (2019); McClary et al., Cell Chem Biol, 24, 605-613 e605 (2017)) with the slight modifications that a 12% 0.13 M Tris/45 mM Borate/2.5 mM EDTA (pH 7.6))—Urea PAGE gel replaced a 10% PAGE gel and the selected RNA fragment size was 40-70 bp rather than 60-70 bp. In brief, RNA was extracted and randomly fragmentated by ZnCl2 (Sigma). After separation on the TBE-Urea PAGE gel, RNA fragments, visualized by ethidium bromide staining (used for all RNA gels) were sliced and extracted from the gel by crushing the gel and vigorously shaking (1400 rpm) at 70° C. in 400 μL of water for 15 min. The 3′ ends were dephosphorylated by T4 Polynucleotide Kinase (New England Biolab). The miRNA cloning linker 2 (5′App/[…]/3′ddC (SEQ ID NO: 11), Integrated DNA Technologies) was used as the universal 3′ linker and pre-adenylated using the 5′ DNA Adenylation Kit (New England Biolab) with the provided protocol. Reverse transcription, self-circularization, and PCR amplification were performed essentially the same as previously described (McClary et al., Cell Chem Biol, 24, 605-613 e605 (2017)). Library sequencing was performed on Illumina NextSeq with single-end mode for up to 75 bp read length.
Data processing. Sequencing reads were processed by Cutadapt 2.10 (cutadapt.readthedocs.io/en/stable/) to remove 3′ end linkers and then inputted into Shapemapper2 (Busan et al., RNA, 24(2):143-148 (2018)) to count the mutations and effective sequencing reads, using the STAR Aligner mode (Dobin et al., STAR: ultrafast universal RNA-seq aligner. Bioinformatics. 29:15-21 (2013)). The mutation rate of each nucleotide was calculated by dividing the number of the reads containing the mutations by the total number of reads, outputted as N.
For the PAL sample, the mutation rate fold change was calculated by dividing the mutation rate of the PAL sample by the mutation rate of the PRE sample. The average mutation count was calculated by averaging the number of mutations of the PAL and PRE samples. MA plots (FIG. 3A, FIG. 3B, FIG. 3C and FIG. 3D) were charted by plotting the mutation rate fold change of each nucleotide as a function of the average mutation count of each nucleotide. To determine possibly significant sites of AzAt labeling, the dataset was first screened for points that meet the criteria of a mutation rate fold change ≥1.5 and an average mutation count ≥100. Points meeting these criteria were further screened with Z-factor >0 and p-value <0.05 to determine statistical significance. The Z-factor (z) was calculated using the following equation
For each complex LASER-Seq was carried out on four types of samples, denoted PAL, PRE, UV, and NUL. PAL samples were prepared by photoaffinity labeling of complexes with 300 μM AzAt, a concentration close to saturating for photoincorporation (FIG. 2C). PRE samples were prepared using separately prephotolyzed AzAt that was re-irradiated in the presence of complexes. UV and NUL samples were prepared in the absence of AzAt by either subjecting complexes to uv irradiation (UV) or just analyzing complexes directly (NUL).
The sites of modification arising exclusively via nitrene formation on irradiation of AzAt was first identified by the mutation rate fold change of PAL vs. PRE samples, a procedure which corrects for mutation rates arising from noncovalent binding, or covalent photoincorporation of pre-photolyzed AzAt, or uv-induced mutations not related to AzAt (Table 4). The results obtained for the ≥6,006 nucleotides present in these two complexes are presented in FIG. 3A, FIG. 3B, FIG. 3C and FIG. 3D. […]

## [N-]=[N+]=Nc1ccc(-c2nc(-c3cccc(C(=O)O)c3)no2)cc1 [AzAt]
[1]
  EC50: 50 ± 10 µM
[2]
  mutation rate change, 26S-A1437: 1.4 fold
  mutation rate change, 26S-A1438: 1.3 fold
  mutation rate change, IRES-A142: 1.4 fold
  mutation rate change, IRES-G186: 2.0 fold
  mutation rate change, IRES-U177: 2.4 fold
[2]; in both complexes
  mutation rate fold-increase PAL vs. PRE, 18S-A1195: ~9 fold
